For one data set, the system named is HIV-1. Conditions: read-out: EC50, anti-HIV-1 activity; cited from earlier work.
The subject of a further data set is latent HIV-1. In words: HIV-1 latency reversal activity, GFP expression of J-Lat 10.6 cells. It is filed as cell-based. Conditions: for HIV-1 latency reversal activity of isolated compounds (in words): J-lat 10.6 cells, GFP expression, tested at 1, 10 and 100 μM; for EC50: Human immunodeficiency virus 1, J-Lat 10.6, read-out: latency EC50, J-Lat 10.6 cells, HIV-1 reactivation dose-response. Here is the method:
(§1) Figure 1 HIV-1 latency reversal activity of methanolic crude extract (EU), partitioned n-hexane (EU-H), dichloromethane (EU-C), ethyl acetate (EU-E), and water-soluble residue (EU-W) phases. (A) dose-response experiments conducted with Jurkat T cells that were latently infected with full-length HIV-1 reporter construct (J-Lat 10.6 cells), HIV-1 reactivation quantified as % of positive control (PMA); (B) cell viability of each sample at 10, 50, 100, 500, and 1000 μg/mL.
(§2) Jurkat cells with a full-length integrated HIV-1 provirus that have been modified to contain a GFP coding region in place of the env gene (J-lat 10.6 cells) were used for HIV-1 anti-latency activity, cytotoxicity, and cellular activation testing. All 31 compounds were tested at 1, 10, and 100 μM. […] These compounds were further tested at additional concentrations to determine dose response and toxicity curves (Figure 5A–F). Cell viability for all isolated compounds is presented in Figure S106 in the supplementary material.
The HIV-1-infected Jurkat T cell line (J-Lat 10.6) was obtained in January 2019 from the NIH/ATCC HIV-1 Reagent Program (www.hivreagentprogram.org) and cultured in RPMI-based media supplemented with 10% fetal calf serum, 1% penicillin, and 1% streptomycin.
(§3) After in vitro culture, J-lat cells were washed with phosphate-buffered saline (1× PBS) prior to staining with 0.1 µL fixable viability dye Live/Dead Aqua (Cat L34957, www.thermofisher.com) per 10^5 cells for 30 min at 4 °C. Simultaneously, J-lat cells were also stained with antibodies against CD69 conjugated to an APC fluorophore (APC anti-human CD69 antibody, biolegend.com). Cells were then washed and re-suspended in 1× PBS prior to flow cytometry acquisition evaluating for cellular viability, green fluorescent protein (GFP) expression, and CD69 expression. Flow cytometry was performed with a BD FACSCelesta or FACSCanoto flow cytometer with FACSDiva acquisition software (Becton Dickinson, Mountain View, CA) prior to analysis with FlowJo (TreeStar Inc., Ashland, OR, USA).
Isolated compounds were resuspended in dimethyl sulfoxide (DMSO; Sigma-Aldrich, Burlington, USA), at a concentration of 10 mM, and diluted with PBS, and tested with J-lat 10.6 cells at concentrations of 100, 10, and 1 μM. J-lat 10.6 cells were tested with compounds at a concentration of 2.5 × 10^5 cells/mL. We performed a minimum of three replicates of each condition for all experiments. Negative controls contained 1% DMSO to account for any effect of DMSO in the highest dilution of compounds.

For a further data set, the system named is PKC. In words: Latency reversal activity in the presence and absence of pan-PKC inhibitor Gö6983. The conditions noted are these: presence versus absence of pan-PKC inhibitor Gö6983. It is filed as cell-based, human. The text has this: (§4) In order to determine whether our active compounds were acting through PKC, we evaluated the latency reversal activity of each of these compounds in the presence and absence of a pan-PKC inhibitor, Gö6983 (Figure 7).
Figure 7 Effect of PKC inhibition on HIV-1 reactivation of compounds 13–14, 21, 26, and 27.

For a further data set, the system named is HIV-1 latency. More on the design: method as in PMID 30944245. The conditions noted are these: through the PKC pathway; cited from earlier work.
Another data set in a line: in vitro. The class given is cell-based, human. Conditions: human, J-Lat 10.6 cells; read-out: cellular CC50. As for the experimental part: as §1, §2, §3
(§5) Isolated compounds were resuspended in dimethyl sulfoxide (DMSO; Sigma-Aldrich, Burlington, USA), at a concentration of 10 mM, and diluted with PBS, and tested with J-lat 10.6 cells at concentrations of 100, 10, and 1 μM. J-lat 10.6 cells were tested with compounds at a concentration of 2.5 × 10^5 cells/mL. […]

For a further data set, the system named is CD69. In words: CD69 expression on J-lat cells (flow cytometry). It is filed as cell-based, human. As for the experimental part:
as §4, §3

The test system of the next data set is latent HIV. More on the design: method as in PMID 30031972. The conditions noted are these: read-out: EC50, reactivation of latent HIV; cited from earlier work.
The next data set deals with J-Lat 10.6 cells. As to the kind of experiment: in vitro. The class given is cell-based, human. The conditions noted are these: read-out: cellular CC50. As for the experimental part:
as §1, §2, §3, §5

As for ent-3-oxoatisan-16α,17-acetonide, the EC50 (commonly the concentration that produces a half-maximal response) in the data set on HIV-1 is 24 µM.
For `CC(=O)O[C@@]12[C@H](OC(=O)c3ccccc3)[C@@H](C)[C@]3(O)[C@@H]4C=C(C)C(=O)C4=CC(C)=C[C@H]3[C@@H]1C2(C)C` [Compound 12, 12-O-benzoyl-13-acetoxy-4,20-dideoxyphorbol-4-ene], the “HIV-1 latency reversal activity of isolated compounds (in words)” value (“HIV-1 latency reversal activity” below) in the data set on latent HIV-1 is reported as “showed HIV-1 latency reversal activity”. Moreover, in the data set on PKC, the “latency reversal activity when PKC was inhibited (in words)” value was “reduced efficacy”.
Turning to `CC1=C[C@]23C(=O)[C@@H](C=C(CO)[C@@H](O)[C@]2(O)[C@H]1O)[C@H]1[C@@H](C[C@H]3C)C1(C)C` [ingenol], the “reactivation of HIV-1 latency (in words)” value in the data set on HIV-1 latency was “significant effect in the reactivation of HIV-1 latency”.
Regarding `CC(=O)O[C@@]12[C@H](OC(=O)c3ccccc3)[C@@H](C)[C@]3(O)[C@@H]4C=C(C)C(=O)[C@@H]4CC(CO)=C[C@H]3[C@@H]1C2(C)C` [Compound 13, crotignoid K], in the data set with latent HIV-1, the EC50 was 3.75 µM and the “HIV-1 latency reversal activity” value was “showed HIV-1 latency reversal activity”. In the data set “in vitro”, the CC50 (as a rule, the concentration that lowers cell viability or growth by half) at 24 h worked out at 40 µM. The “latency reversal activity when PKC was inhibited (in words)” value with PKC is listed as “reduced efficacy”.
Consider `COc1cc([C@H]2Oc3c(OC)cc(/C=C/COC(C)=O)cc3[C@@H]2COC(C)=O)ccc1O` [Compound 27, dimeric coniferyl acetate], for which the “HIV-1 latency reversal activity” value in the data set on latent HIV-1 was “showed HIV-1 latency reversal activity”. For the same compound, in the data set on PKC, the “latency reversal activity when PKC was inhibited (in words)” value is “did not show a significant reduction”. Besides, the “CD69 expression (hallmark of PKC activation) (in words)” value in the data set with CD69 is given as “did not increase CD69 expression”.
In the case of `COc1cc(C2OCC3C(c4cc(OC)c(O)c(OC)c4)OCC23)cc(OC)c1O` (single isomer, unassigned; (+)) [Compound 26, (+)-syringaresinol], in the data set on latent HIV-1, the “HIV-1 latency reversal activity” value is “showed HIV-1 latency reversal activity”. In addition, in the data set with PKC, the “latency reversal activity when PKC was inhibited (in words)” value is given as “did not show a significant reduction”. The “CD69 expression (hallmark of PKC activation) (in words)” value in the data set on CD69 is on record as “did not increase CD69 expression”.
Consider `CC1=C2C=C3CC[C@@H]4C(C)(C)C(=O)CC[C@@]4(C)[C@@H]3C[C@H]2OC1=O` [Compound 21, helioscopinolide E], for which, in the data set with latent HIV-1, the “HIV-1 latency reversal activity” value is “showed HIV-1 latency reversal activity”. Moreover, the “latency reversal activity when PKC was inhibited (in words)” value in the data set on PKC is recorded as “reduced efficacy”.
Turning to `CC1=C[C@]23C(=O)[C@@H](C=C(CO)[C@@H](O)[C@]2(O)[C@H]1OC(=O)c1ccc2ccccc2c1)[C@H]1[C@@H](C[C@H]3C)C1(C)C` [3-(2-naphthoyl)ingenol], the EC50 in the data set on latent HIV was 0.0024 µM.
For the compound `CC(=O)O[C@@]12[C@H](OC(=O)c3ccccc3)[C@@H](C)[C@]3(O)[C@@H]4C=C(C)C(=O)[C@H]4CC(CO)=C[C@H]3[C@@H]1C2(C)C` [Compound 14, 4β-Crotignoid K], in the data set with latent HIV-1, the EC50 worked out at 0.015 µM and the “HIV-1 latency reversal activity” value is reported as “showed HIV-1 latency reversal activity”. In addition, in the data set on latent HIV-1 (J-Lat 10.6 cells, compared to crotignoid K (13)), the “fold difference in selectivity index (CC50/EC50), 14 versus 13” value is ~ 1000 fold. For the same compound, the CC50 at 24 h in “in vitro” was determined as 160 µM. In the data set with J-Lat 10.6 cells, the CC50 was more than 160 µM. Besides, in the data set with PKC, the “latency reversal activity when PKC was inhibited (in words)” value was “reduced efficacy”.
`C/C=C(/C)C(=O)O[C@H]1C(C)=C[C@]23C(=O)[C@@H](C=C(CO)[C@@H](O)[C@]12O)[C@H]1[C@@H](C[C@H]3C)C1(C)C` [3-angeloylingenol]: the EC50 in the data set on latent HIV is 0.0042 µM.
In the case of `CC1(C)OC[C@@]2(C[C@]34CC[C@H]2C[C@H]3[C@]2(C)CC[C@H](O)C(C)(C)[C@H]2CC4)O1` [euphorneroid D], the EC50 in the data set with HIV-1 is 34 µM.
